Results taken from patent publication US8912200B2, “Alkynyl substituted pyrimidinyl-pyrroles active as kinases inhibitors” (Nerviano Medical Sciences S.R.L., priority 2011, dated 2014).

Legend:
[1] = test system: JAK2 dependent human megakaryoblastic leukemia cell line SET-2; test: Cell proliferation assay (CellTiter-Glo, 72 hours); type: cell-based; conditions: Homo sapiens, SET-2 cells
Procedure, shortened: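 About 5×10^3 SET-2 cells per well, in RPMI-1640 with 10% FBS, were exposed to inhibitor dilutions for 72 hours at 37 °C, 5% CO2. Viability read by CellTiter-Glo luminescence. IC50 from sigmoidal fitting of 8-point dilution curves.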

Lyn full length = molecular target: T1, Lyn full length (Homo sapiens, UniProt P07948); test: Biochemical assay for inhibitors of Lyn (Src family) kinase activity; conditions: Lyn full length 1 nM, 25 μM ATP
T1 construct: The assay has been performed using Lyn full length
T1 sequence (P07948 whole entry): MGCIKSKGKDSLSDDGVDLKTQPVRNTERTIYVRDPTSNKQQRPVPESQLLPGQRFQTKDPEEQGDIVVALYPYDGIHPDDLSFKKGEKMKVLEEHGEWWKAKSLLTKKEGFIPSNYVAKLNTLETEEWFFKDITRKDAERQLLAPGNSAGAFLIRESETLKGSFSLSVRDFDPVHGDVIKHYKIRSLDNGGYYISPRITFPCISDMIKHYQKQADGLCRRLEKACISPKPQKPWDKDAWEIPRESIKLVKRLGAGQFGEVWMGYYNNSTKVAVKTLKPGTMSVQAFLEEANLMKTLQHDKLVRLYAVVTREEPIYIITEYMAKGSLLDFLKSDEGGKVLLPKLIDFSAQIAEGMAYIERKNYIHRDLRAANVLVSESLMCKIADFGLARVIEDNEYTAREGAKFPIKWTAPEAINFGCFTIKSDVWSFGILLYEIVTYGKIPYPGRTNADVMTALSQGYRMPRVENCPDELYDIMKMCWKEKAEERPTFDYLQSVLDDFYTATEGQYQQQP
Excerpt: Biochemical Assay for Inhibitors of Lck and Lyn (Src Family) Kinases Activity
Specific Lck and Lyn substrates are trans-phosphorylated by Lck and Lyn kinases in the presence of ATP traced with 33P-γ-ATP. At the end of the phosphorylation reaction, the unreacted ATP, cold and radioactive, is captured by an excess of dowex ion exchange resin that eventually settles by gravity to the bottom of the reaction plate. The supernatant is subsequently withdrawn and transferred into a counting plate that is then evaluated by β-counting.
Lyn Specific Assay Conditions
The assay has been performed using Lyn full length (accession number P07948 of UniProtKB/Swiss-Prot database).
Kinase buffer was composed of 50 mM HEPES pH 7.5 containing 3 mM MgCl2, 1 mM DTT, 3 μM Na3VO4, and 0.2 mg/mL BSA.
The Lyn kinase assay was run with a final enzyme concentration of 1 nM, in the presence of 25 μM ATP, 1.5 nM 33P-γ-ATP and 250 μM of substrate ABI 1 (Aminoacid sequence: EAIYAAPFAKKK—SEQ ID NO: 3). The peptidic substrate was purchased from American Peptide Company (Sunnyvale, Calif.).
For IC50 determination, test compounds are received as a 1 mM solution in 100% DMSO, distributed into 96 well plates: compounds are then plated into the first column of a microtiter plate (A1 to G1), 100 μL/well.
An automated station for serial dilutions (Biomek FX, Beckman) is used for producing 1:3 dilutions in 100% DMSO, from line A1 to A10, and for all the compounds in the column. Moreover, 4-5 copies of daughter plates are prepared by reformatting 5 μL of this first set of 100% DMSO dilution plates into 384 deep well-plates: one of these plates with the serial dilutions of test compounds will be thawed the day of the experiments, reconstituted at a 3× concentration with water and used in the IC50 determination assays. In a standard experiment, the highest concentration (3×) of all compounds is 30 μM, while the lowest one is 1.5 nM. Each 384 well-plate will contain at least one curve of the standard inhibitor staurosporine and reference wells (total enzyme activity vs. no enzymatic activity) for the Z′ and signal to background evaluation.
384-well plates, V bottom (test plates) are prepared with 5 μL of the compound dilution (3×) and then placed onto a PlateTrak 12 robotized station (Perkin Elmer; the robot has one 384-tip pipetting head for starting the assay plus one 96-tip head for dispensing the resin) together with one reservoir for the Enzyme mix (3×) and one for the ATP mix (3×). At the start of the run, the robot aspirates 5 μL of ATP mix, makes an air gap inside the tips (3 μl) and aspirates 5 μL of JAK2 mix. The following dispensation into the plates plus 3 cycles of mixing, done by the robot itself, starts the kinase reaction. At this point, the correct concentrations are restored for all the reagents. The robot incubates the plates for 60 minutes at room temperature, and then stops the reaction by pipetting 60 μL of dowex resin suspension into the reaction mix. In order to avoid tip clogging, wide bore tips are used to dispense the resin suspension. Three cycles of mixing are done immediately after the addition of the resin. Another mixing cycle is performed after all the plates are stopped, this time using normal tips: the plates are then allowed to rest for about one hour in order to allow resin sedimentation. At this point, 27 μL of the supernatant are transferred into 384-Optiplates (Perkin-Elmer), with 50 μL of Microscint 40 (Perkin-Elmer); after 5 min of orbital shaking the plates are read on a Perkin-Elmer Top Count radioactivity counter.
Data are analyzed by an internally customized version of the SW package “Assay Explorer” that provides sigmoidal fitting of the ten-dilutions curves for IC50 determination in the secondary assays/hit confirmation routines.

JAK2 kinase domain = molecular target: T2, JAK2 kinase domain (Homo sapiens, UniProt O60674); test: Biochemical assay for inhibitors of JAK kinase activity (JAK2, 33P-γ-ATP/dowex resin); conditions: JAK2 kinase domain 1 nM, 60 μM ATP
T2 construct: commercially available JAK2 kinase domain; purchased Invitrogen, Eugene, Oreg
T2 sequence (O60674 849-1124 limits assumed): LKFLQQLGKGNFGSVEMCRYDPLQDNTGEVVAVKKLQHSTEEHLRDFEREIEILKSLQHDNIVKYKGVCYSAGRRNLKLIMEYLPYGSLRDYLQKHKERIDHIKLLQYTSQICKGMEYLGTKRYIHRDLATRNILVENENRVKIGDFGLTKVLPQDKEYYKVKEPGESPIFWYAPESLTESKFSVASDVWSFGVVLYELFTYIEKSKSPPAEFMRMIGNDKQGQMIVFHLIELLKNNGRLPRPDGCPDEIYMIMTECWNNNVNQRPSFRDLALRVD
Procedure, shortened: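 Human JAK2 (1 nM) phosphorylated peptide BioDBn*306 (64 μM) with 60 μM ATP plus 3 nM 33P-γ-ATP in HEPES pH 7.5/MgCl2/DTT buffer, 60 min at room temperature. Unreacted ATP captured by Dowex resin; supernatant β-counted. IC50 from sigmoidal fit of ten-point 1:3 dilution curves.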

SMILES	IC50 [1] [µM]	IC50 (Lyn full length) [µM]	IC50 (JAK2 kinase domain) [µM]
Cc1ccc(Cl)cc1-c1[nH]c(-c2ccnc(N)n2)c(C#Cc2ccc(N)cc2)c1C(N)=O [compound 76, 4-[(4-Aminophenyl)ethynyl]-5-(2-amino-pyrimidin-4-yl)-2-(5-chloro-2-methyl-phenyl)-1H-pyrrole-3-carboxamide]	0.5	0.008	0.003
Cc1ccc(Cl)cc1-c1[nH]c(-c2ccnc(N)n2)c(C#Cc2cccc(CN3CCN(C)CC3)c2)c1C(N)=O [compound 81, 5-(2-Aminopyrimidin-4-yl)-2-(5-chloro-2-methylphenyl)-4-({3-[(4-methylpiperazin-1-yl)methyl]phenyl}ethynyl)-1H-pyrrole-3-carboxamide]	0.54	0.003	0.006
Cc1ccc(Cl)cc1-c1[nH]c(-c2ccnc(N)n2)c(C#Cc2cccc(NCCN)c2)c1C(N)=O [compound 82, 4-({3-[(2-Aminoethyl)amino]phenyl}ethynyl)-5-(2-aminopyrimidin-4-yl)-2-(5-chloro-2-methylphenyl)-1H-pyrrole-3-carboxamide]	0.29	0.011	0.007
Cc1ccc(Cl)cc1-c1[nH]c(-c2ccnc(N)n2)c(C#Cc2ccc(N3CCN(C)CC3)cc2)c1C(N)=O [compound 83, 5-(2-Aminopyrimidin-4-yl)-2-(5-chloro-2-methylphenyl)-4-{[4-(4-methylpiperazin-1-yl)phenyl]ethynyl}-1H-pyrrole-3-carboxamide]	0.51	0.009	0.008
COc1ccc(N2CCN(C)CC2)cc1C#Cc1c(-c2ccnc(N)n2)[nH]c(-c2cc(Cl)ccc2C)c1C(N)=O [compound 86, 5-(2-Aminopyrimidin-4-yl)-2-(5-chloro-2-methylphenyl)-4-{[2-methoxy-5-(4-methylpiperazin-1-yl)phenyl]ethynyl}-1H-pyrrole-3-carboxamide]	0.21	0.001	0.001
Cc1ccc(Cl)cc1-c1[nH]c(-c2ccnc(N)n2)c(C#Cc2ccccc2NCCN(C)C)c1C(N)=O [compound 87, 5-(2-Aminopyrimidin-4-yl)-2-(5-chloro-2-methylphenyl)-4-[(2-{[2-(dimethylamino)ethyl]amino}phenyl)ethynyl]-1H-pyrrole-3-carboxamide]	0.29	0.024	0.013
COc1cc(N2CCN(C)CC2)ccc1C#Cc1c(-c2ccnc(N)n2)[nH]c(-c2cc(Cl)ccc2C)c1C(N)=O [compound 89, 5-(2-Aminopyrimidin-4-yl)-2-(5-chloro-2-methylphenyl)-4-{[2-methoxy-4-(4-methylpiperazin-1-yl)phenyl]ethynyl}-1H-pyrrole-3-carboxamide]	0.26	0.004	0.006
Cc1ccc(Cl)cc1-c1[nH]c(-c2ccnc(N)n2)c(C#Cc2cccc(N3CCN(C)CC3)c2)c1C(N)=O [compound 90, 5-(2-Aminopyrimidin-4-yl)-2-(5-chloro-2-methylphenyl)-4-{[3-(4-methylpiperazin-1-yl)phenyl]ethynyl}-1H-pyrrole-3-carboxamide carboxamide]	0.3	0.005	0.003
Cc1ccc(Cl)cc1-c1[nH]c(-c2ccnc(N)n2)c(C#Cc2cccc(OC3CCN(C)CC3)c2)c1C(N)=O [compound 91, 5-(2-Aminopyrimidin-4-yl)-2-(5-chloro-2-methylphenyl)-4-({3-[(1-methylpiperidin-4-yl)oxy]phenyl}ethynyl)-1H-pyrrole-3-carboxamide]	0.26	0.114	0.005

Other lines, results leading:

IC50 [1] [µM]	IC50 (Lyn full length) [µM]	IC50 (JAK2 kinase domain) [µM]	SMILES
0.22	0.039	0.005	Cc1ccc(Cl)cc1-c1[nH]c(-c2ccnc(N)n2)c(C#Cc2ccc(OC3CCN(C)CC3)cc2)c1C(N)=O [compound 92, 5-(2-Aminopyrimidin-4-yl)-2-(5-chloro-2-methylphenyl)-4-({4-[(1-methylpiperidin-4-yl)oxy]phenyl}ethynyl)-1H-pyrrole-3-carboxamide]
0.23	0.093	0.005	Cc1ccc(Cl)cc1-c1[nH]c(-c2ccnc(N)n2)c(C#Cc2cc(N3CCN(C)CC3)ccc2F)c1C(N)=O [compound 93, 5-(2-Aminopyrimidin-4-yl)-2-(5-chloro-2-methylphenyl)-4-{[2-fluoro-5-(4-methylpiperazin-1-yl)phenyl]ethynyl}-1H-pyrrole-3-carboxamide]
0.29	0.661	0.032	Cc1ccc(Cl)cc1-c1[nH]c(-c2ccnc(N)n2)c(C#Cc2ccccc2NC2CCN(C)CC2)c1C(N)=O [compound 94, 5-(2-Aminopyrimidin-4-yl)-2-(5-chloro-2-methylphenyl)-4-({2-[(1-methylpiperidin-4-yl)amino]phenyl}ethynyl)-1H-pyrrole-3-carboxamide]
0.4	0.281	0.008	Cc1ccc(Cl)cc1-c1[nH]c(-c2ccnc(N)n2)c(C#Cc2ccc(N3CCC(N4CCN(C)CC4)CC3)cc2)c1C(N)=O [compound 95, 5-(2-Aminopyrimidin-4-yl)-2-(5-chloro-2-methylphenyl)-4-({4-[4-(4-methylpiperazin-1-yl)piperidin-1-yl]phenyl}ethynyl)-1H-pyrrole-3-carboxamide]
0.21	0.093	0.004	Cc1ccc(Cl)cc1-c1[nH]c(-c2ccnc(N)n2)c(C#Cc2ccc(N3CCC(N(C)C)CC3)cc2)c1C(N)=O [compound 96, 5-(2-Aminopyrimidin-4-yl)-2-(5-chloro-2-methylphenyl)-4-({4-[4-(dimethylamino)piperidin-1-yl]phenyl}ethynyl)-1H-pyrrole-3-carboxamide]
0.74	0.293	0.012	Cc1ccc(Cl)cc1-c1[nH]c(-c2ccnc(N)n2)c(C#Cc2ccc(N3CCC(N4CCCCC4)CC3)cc2)c1C(N)=O [compound 97, 5-(2-Aminopyrimidin-4-yl)-4-{[4-(1,4′-bipiperidin-1′-yl)phenyl]ethynyl}-2-(5-chloro-2-methylphenyl)-1H-pyrrole-3-carboxamide]
1.64	0.208	0.036	Cc1ccc(Cl)cc1-c1[nH]c(-c2ccnc(N)n2)c(C#Cc2ccc(N3CCC(N4CCCC4)CC3)cc2)c1C(N)=O [compound 98, 5-(2-Aminopyrimidin-4-yl)-2-(5-chloro-2-methylphenyl)-4-({4-[4-(pyrrolidin-1-yl)piperidin-1-yl]phenyl}ethynyl)-1H-pyrrole-3-carboxamide]
0.41	0.026	0.002	Cc1ccc(Cl)cc1-c1[nH]c(-c2ccnc(N)n2)c(C#Cc2ccc(N3CCNCC3)cc2)c1C(N)=O [compound 99, 5-(2-Aminopyrimidin-4-yl)-2-(5-chloro-2-methylphenyl)-4-{[4-(piperazin-1-yl)phenyl]ethynyl}-1H-pyrrole-3-carboxamide]
0.2	0.025	0.005	CCc1ccc(Cl)cc1-c1[nH]c(-c2ccnc(N)n2)c(C#Cc2ccccc2NCCN(C)C)c1C(N)=O [compound 101, 5-(2-Aminopyrimidin-4-yl)-2-(5-chloro-2-ethylphenyl)-4-[(2-{[2-(dimethylamino)ethyl]amino}phenyl)ethynyl]-1H-pyrrole-3-carboxamide]
